According to PubChem BioAssay (NCI):
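Step 1: Grow cells in 96-well plates. Step 2: Expose to compound for 48 hours at 5 concentrations. Step 3: Interpolate endpoints linearly; if unreached, use highest concentration. TGI denotes the concentration required for complete inhibition of growth.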

Tests used:
Assay in all cases: NCI-60 cell line screen, 48 h
EKVX NSCLC = system: EKVX NSCLC
HCT-15 colon = system: HCT-15 colon
HOP-62 NSCLC = system: HOP-62 NSCLC
MDA-N = system: MDA-N
NCI-H23 lung = system: NCI-H23 lung
RXF 393 renal = system: RXF 393 renal
SF-539 CNS = system: SF-539 CNS
SK-MEL-28 melanoma = system: SK-MEL-28 melanoma
SK-MEL-5 melanoma = system: SK-MEL-5 melanoma
UO-31 renal = system: UO-31 renal

Structure (SMILES) | TGI (EKVX NSCLC) | TGI (HCT-15 colon) | TGI (HOP-62 NSCLC) | TGI (MDA-N) | TGI (NCI-H23 lung) | TGI (RXF 393 renal) | TGI (SF-539 CNS) | TGI (SK-MEL-28 melanoma) | TGI (SK-MEL-5 melanoma) | TGI (UO-31 renal)
COC(=O)c1ccccc1C1CN=NC12Cc1cccc(C)c1C2=O (stereo not given) | > 100 µM | > 100 µM | > 100 µM | > 100 µM | > 100 µM | > 100 µM | > 100 µM | > 100 µM | > 100 µM | 83.9 µM
C[C@]1(O)O[C@@H]2OCC[C@@H]2C2=C1C(=O)c1ccccc1C2=O | 37.1 µM | 39.1 µM | 26.7 µM | 19.1 µM | 31.6 µM | 27.2 µM | 31.7 µM | 82.5 µM | 24.8 µM | 31.8 µM
NC(=O)CC(N=C1C(=O)OC(C(O)CO)C1=NC(CC(N)=O)C(=O)O)C(=O)O (stereo not given) | > 100 µM | > 100 µM | > 100 µM | > 100 µM | > 100 µM | > 100 µM | > 100 µM | > 100 µM | > 100 µM | > 100 µM
CC(NC(=O)C(N)CC(=O)O)NC(=O)N(C)C(C)(C)C (stereo not given) | > 100 µM | > 100 µM | > 100 µM | > 100 µM | > 100 µM | > 100 µM | > 100 µM | > 100 µM | > 100 µM | > 100 µM
Clc1ncc(Cl)c(Cl)n1 | 30.3 µM | 5.99 µM | 39.4 µM | 11 µM | 42.3 µM | 5.46 µM | 24.6 µM | 10.9 µM | 12.7 µM | 7.17 µM
C=CCCCCCCCCCOC1C=CC(OC(C)=O)C(COC(C)=O)O1 (stereo not given) | > 100 µM | > 100 µM | > 100 µM | > 100 µM | > 100 µM | > 100 µM | > 100 µM | > 100 µM | > 100 µM | > 100 µM
CC[C@@]12C=CC(=S)N(CCSc3ccccc3)[C@@H]1c1c(n(S(=O)(=O)c3ccc(OC)cc3)c3ccccc13)CC2 | > 100 µM | > 100 µM | > 100 µM | > 100 µM | > 100 µM | > 100 µM | > 100 µM | > 100 µM | > 100 µM | > 100 µM
CCc1nc2ccc(C(F)(F)F)cc2[nH]c1=O | > 100 µM | > 100 µM | > 100 µM | > 100 µM | > 100 µM | > 100 µM | > 100 µM | > 100 µM | > 100 µM | > 100 µM
Clc1nc(Cl)c(CBr)c(Cl)n1 | 48.9 µM | 7.91 µM | 9.72 µM | 13.2 µM | 31.2 µM | 21.4 µM | 7.76 µM | 19.9 µM | 8.46 µM | 9.01 µM
Cc1nc2ccccc2n1Cc1nnc(N)o1 | > 100 µM | > 100 µM | > 100 µM | > 100 µM | > 100 µM | > 100 µM | > 100 µM | > 100 µM | > 100 µM | > 100 µM
c1ccc(C(CCN2CC3CCC(CC3)C2)c2ccccc2)cc1 | > 100 µM | 45.4 µM | 70.5 µM | 58.9 µM | 36.1 µM | 37.9 µM | 29.5 µM | > 100 µM | 30.1 µM | 45.7 µM
CC12CCC(C(Nc3ccccn3)C1=O)C2(C)C (stereo not given) | > 100 µM | > 100 µM | > 100 µM | > 100 µM | > 100 µM | > 100 µM | > 100 µM | > 100 µM | > 100 µM | > 100 µM
O=c1cc(N=Nc2ccc(Cl)cc2)[nH]c(=O)[nH]1 | 8.5 µM | 4.43 µM | 30.1 µM | 11 µM | 14.1 µM | 10.2 µM | 10.2 µM | 13.5 µM | 21.4 µM | 10.6 µM
CC(C)(C)c1ccc(C(C)(C)C)c(N2C(=O)C3ON=C(c4ccc([N+](=O)[O-])cc4)C3C2=O)c1 (stereo not given) | > 25 µM | > 25 µM | > 25 µM | > 25 µM | > 25 µM | > 25 µM | > 25 µM | > 25 µM | > 25 µM | > 25 µM
O=[N+]([O-])c1c2nc3n(c2cc2c1nc1n2CCC1)CCC3 | > 100 µM | > 100 µM | > 100 µM | > 100 µM | > 100 µM | > 100 µM | > 100 µM | > 100 µM | > 100 µM | > 100 µM
CC(C)C1CC[C@H](C)C[C@@H]1OC(=O)C(C(=O)O[C@H]1C[C@@H](C)CCC1C(C)C)C(O)[C@@H]1OC(C)(C)O[C@H]1C1COC(C)(C)O1 (stereo not given in full) | 41.8 µM | 44.3 µM | 37.5 µM | 35.4 µM | 31.9 µM | 28.9 µM | 49.5 µM | 35.4 µM | 29.2 µM | 31.3 µM
COc1ccc2cc(C(=O)NCCCNC(=O)c3ccc4cc(OC)ccc4c3)ccc2c1 | > 100 µM | > 100 µM | 42.1 µM | > 100 µM | > 100 µM | 39.6 µM | 7.99 µM | > 100 µM | > 100 µM | > 100 µM
COc1cc2c(cc1OCCCC(=O)Nc1cc(C(=O)NCCCN(C)C)n(C)n1)N=CC1CCCN1C2=O (stereo not given) | > 62 µM | > 21.5 µM | > 43.7 µM | 73.2 µM | > 26.2 µM | > 75.6 µM | 22.1 µM | 11.1 µM | 14 µM | 24.3 µM
COc1ccccc1NC(=O)O/N=C(/Cl)C(C)C | 29.6 µM | 27 µM | 17.1 µM | 26.8 µM | 28.8 µM | 28.4 µM | 35.9 µM | 27.8 µM | 24.1 µM | 32.8 µM
